# Data taken from patent US20250129067A1 (Progentos Therapeutics, Inc., priority 2021, published 2025).
# Assays:
# [1] = target: PDGFRα (Homo sapiens (Human), UniProt P16234); experiment: PDGFRα kinase enzyme assay (Promega PDGFRα Kinase Enzyme System, ADP-Glo); format: biochemical; conditions: 11-point dose response, 10,000 nM to 0.169 nM; 150 uM ATP; BLQ = below limit of quantitation; read-out: IC50 Values on PDGFRα Kinase Inhibition, IC50
# Method in brief: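 Purified PDGFRα protein (20 ng) reacted with test compound per the Promega kinase system protocol. ADP formed was measured by ADP-Glo luminescence against a standard curve, giving IC50.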
# [2] = system: Oligodendrocyte progenitor cells (OPCs); experiment: In vitro OPC differentiation assay, GPR17 expression (immunocytochemistry); conditions: 3 μM (10× concentration, final 0.3 μM); 72 hours; fold change over vehicle
# PDGFRα, sequence (P16234 24-1089): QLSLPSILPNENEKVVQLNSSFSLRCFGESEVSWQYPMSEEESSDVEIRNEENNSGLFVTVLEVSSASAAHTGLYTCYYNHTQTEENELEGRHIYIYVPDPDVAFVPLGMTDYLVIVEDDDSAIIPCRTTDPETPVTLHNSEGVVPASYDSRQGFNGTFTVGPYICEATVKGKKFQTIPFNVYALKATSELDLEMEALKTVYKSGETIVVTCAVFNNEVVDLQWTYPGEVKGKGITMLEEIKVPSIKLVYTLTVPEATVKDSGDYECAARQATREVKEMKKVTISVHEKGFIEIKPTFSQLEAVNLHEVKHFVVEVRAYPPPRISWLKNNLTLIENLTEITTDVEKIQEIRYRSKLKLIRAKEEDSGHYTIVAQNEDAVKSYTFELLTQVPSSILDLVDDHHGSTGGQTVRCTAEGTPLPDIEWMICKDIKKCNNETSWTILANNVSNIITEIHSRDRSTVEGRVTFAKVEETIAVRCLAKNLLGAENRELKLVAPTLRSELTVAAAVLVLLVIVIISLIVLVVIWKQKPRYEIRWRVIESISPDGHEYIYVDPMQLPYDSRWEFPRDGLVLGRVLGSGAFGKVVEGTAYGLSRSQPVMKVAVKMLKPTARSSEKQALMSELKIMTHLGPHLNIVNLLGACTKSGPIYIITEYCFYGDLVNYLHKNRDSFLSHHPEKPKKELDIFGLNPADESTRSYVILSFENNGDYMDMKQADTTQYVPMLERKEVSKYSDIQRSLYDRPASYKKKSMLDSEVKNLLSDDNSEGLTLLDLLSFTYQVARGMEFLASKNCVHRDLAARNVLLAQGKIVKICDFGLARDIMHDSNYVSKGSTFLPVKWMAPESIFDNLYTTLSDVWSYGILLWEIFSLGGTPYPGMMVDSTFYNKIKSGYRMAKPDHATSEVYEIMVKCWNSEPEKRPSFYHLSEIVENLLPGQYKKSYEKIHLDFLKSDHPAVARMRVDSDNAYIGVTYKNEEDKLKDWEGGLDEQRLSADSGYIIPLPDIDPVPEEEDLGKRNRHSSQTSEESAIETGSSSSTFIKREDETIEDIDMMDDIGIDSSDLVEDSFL
IC50 [1] [µM],GPR17 Fold Induction (Over Vehicle; 3 μM) [2],SMILES
> 10,1.55,"CN1CCC(c2ccc3c(N4CCN(C(=O)OC(C)(C)C)CC4)cnn3c2)CC1 [Compound 225, tert-butyl 4-(6-(1-methylpiperidin-4-yl)pyrazolo[1,5-a]pyridin-3-yl)piperazine-1-carboxylate]"
0.268,9.02,"COCCn1cnc(-c2ccc3c(N4CCN(C(=O)OC(C)(C)C)CC4)cnn3c2)c1 [Compound 227, tert-butyl 4-(6-(1-(2-methoxyethyl)-1H-imidazol-4-yl)pyrazolo[1,5-a]pyridin-3-yl)piperazine-1-carboxylate]"
> 10,1.19,"COCCn1cncc1-c1ccc2c(N3CCN(C(=O)OC(C)(C)C)CC3)cnn2c1 [Compound 228, tert-butyl 4-(6-(1-(2-methoxyethyl)-1H-imidazol-5-yl)pyrazolo[1,5-a]pyridin-3-yl)piperazine-1-carboxylate]"
0.363,10.61,"CC(C)(C)OC(=O)N1CCN(c2cnn3cc(-c4cn(CCO)cn4)ccc23)CC1 [Compound 229, tert-butyl 4-(6-(1-(2-hydroxyethyl)-1H-imidazol-4-yl)pyrazolo[1,5-a]pyridin-3-yl)piperazine-1-carboxylate]"
> 10,0.95,"Cn1nnc(-c2ccc3c(N4CCN(C(=O)OC(C)(C)C)CC4)cnn3c2)n1 [Compound 237, tert-butyl 4-(6-(2-methyl-2H-tetrazol-5-yl)pyrazolo[1,5-a]pyridin-3-yl)piperazine-1-carboxylate]"

# The next lines start with the molecule.
SMILES,IC50 [1] [µM],GPR17 Fold Induction (Over Vehicle; 3 μM) [2]
"Cn1cnc(-c2ccc3c(N4CCN(C(=O)OC(C)(C)C)CC4)cnn3c2)c1 [Compound 226, tert-butyl 4-(6-(1-methyl-1H-imidazol-4-yl)pyrazolo[1,5-a]pyridin-3-yl)piperazine-1-carboxylate]",1.42,11.69
"CC(C)(C)OC(=O)N1CCN(c2cnn3cc(-c4cncn4CCO)ccc23)CC1 [Compound 230, tert-butyl 4-(6-(1-(2-hydroxyethyl)-1H-imidazol-5-yl)pyrazolo[1,5-a]pyridin-3-yl)piperazine-1-carboxylate]",> 10,0.97
"CC(C)(C)OC(=O)N1CCN(c2cnn3cc(-c4cn(CCCN5CCOCC5)cn4)ccc23)CC1 [Compound 231, tert-butyl 4-(6-(1-(3-morpholinopropyl)-1H-imidazol-4-yl)pyrazolo[1,5-a]pyridin-3-yl)piperazine-1-carboxylate]",0.395,9.34
"CC(C)(C)OC(=O)N1CCN(c2cnn3cc(-c4cncn4CCCN4CCOCC4)ccc23)CC1 [Compound 232, tert-butyl 4-(6-(1-(3-morpholinopropyl)-1H-imidazol-5-yl)pyrazolo[1,5-a]pyridin-3-yl)piperazine-1-carboxylate]",> 10,1.03
"CC(C)(C)OC(=O)N1CCN(c2cnn3cc(-c4cnn5c4CCCC5)ccc23)CC1 [Compound 236, tert-butyl 4-(4,5,6,7-tetrahydro-[3,6′-bipyrazolo[1,5-a]pyridin]-3′-yl)piperazine-1-carboxylate]",0.696,6.03
"Cn1cc(-c2ccc3c(N4CCN(c5ncnn5Cc5ccccc5)CC4)cnn3c2)cn1 [Compound 239, 3-(4-(1-benzyl-1H-1,2,4-triazol-5-yl)piperazin-1-yl)-6-(1-methyl-1H-pyrazol-4-yl)pyrazolo[1,5-a]pyridine]",> 10,1.88
"CC1CN(C(=O)OC(C)(C)C)CCN1c1cnn2cc(-c3cnn(C)c3)ccc12 (stereo not drawn) [Compound 240, tert-butyl 3-methyl-4-(6-(1-methyl-1H-pyrazol-4-yl)pyrazolo[1,5-a]pyridin-3-yl)piperazine-1-carboxylate]",9.41,4.67
